Experimental data reported in patent US20220204918A1, “CELL CULTURE MEDIA COMPRISING KETO ACIDS” (MERCK PATENT GMBH, priority 2019, published 2022).
Values after ≈ are worked out from the molar mass of the structure shown. Counter-ions that a name gives are not always drawn. One block for each molecule: values may come before it.

Columns and labels:
[1] = system: CHOK1GS suspension cell line expressing a human IgG1; assay: 17-days fed-batch process with keto acid replacing amino acid in the feed; format: cell-based; settings: for amount of NH3 produced compared to control: 17-days fed-batch
Protocol: For cell culture experiments, a CHOK1GS suspension cell line expressing a human IgG1, was used. Cells were cultivated in quadruplicate in Cellvento 4CHO medium (Merck Darmstadt, Germany) using 50 mL spin tubes with a starting culture volume of 30 mL and a seeding density of 2×10^5 cells/mL. Incubation was carried out at 37° C., 5% CO2, 80% humidity and an agitation of 320 rpm. The keto acids were added in the Feed (4Feed depleted in Ile and leu) instead of their respective amino acids. The pH of all the feeds was neutral (pH 7.0+/−0.2). The positive control contained the normal amino acids whereas the negative control contained the feed depleted in the respective amino acid and without addition of keto acid. Feeding was carried out at days 3, 5, 7, 10 and 14 at the following v/v ratios (3, 3, 6, 3 and 3%). Glucose was quantified daily and adjusted to 6 g/L using a 400 g/L glucose solution. The experiment was repeated at least 3 times.
The viable cell density (VCD) and viability were evaluated with a Vi-CELL XR (Beckman Coulter, Fullerton, Calif.). Metabolite concentrations were monitored using a Cedex Bio HT (Roche Diagnostics, Mannheim, Germany) based on spectrophotometric and turbidometric methods. Quantification of amino acids was carried out via UPLC after derivatization with the AccQ⋅TagUltra® reagent kit. Derivatization, chromatography and data analysis were carried out following the supplier recommendations (Waters, Milford, Mass.).
The productivity per cell per day was calculated daily by dividing the titer by the corrected integral VCD to take into account the dilution resulting from feeding. The overall specific productivity was determined by calculating the slope from the linear regression between titer and corrected integral VCD.

[2] = Solubility in water at 25° C. (saturated solution, residual mass after infrared drying); format: physicochemical; settings: for Solubility 25° C. in g/kg (corresponding keto acid) / Solubility (amino acid) / maximum solubilities obtained in water: water; for Solubility 25° C. in g/kg (corresponding keto acid) / Solubility (amino acid): 25° C.; for maximum solubilities obtained in water: separate experiments
Protocol: After sedimentation, the solution was dried using infrared (120° C., 120 min) and the residual mass was determined in g/kg.

physchem = settings: for solubility at 10 min: 25 °C, pH 7, aqueous with cosolvent or surfactant or cyclodextrin, thermodynamic from solid
Protocol: Increasing amounts of the keto acids and salts thereof were added to a cell culture feed formulation (Cellvento® 4Feed, MilliporeSigma) depleted in Ile and Leu. Similarly, increasing amount of Ile and Leu were added to the same feed formulation as a control. The total concentration of this feed formulation was 125 g/L and the pH was 7.0+/−0.2. In small scale experiments, after each addition of either the amino acid or the keto acid, the feed was agitated for 10 mins and turbidity was measured. The experiments were performed at room temperature (25° C.).

[3] = Feed stability: NH3 formed during 3 months storage (AUC of NH3 concentration); format: physicochemical; settings: for less ammonia produced compared to control: 4° C.; for reduced ammonia level compared to control: RT
Protocol: Finally, the amount of ammonium ions formed during storage of the feed containing keto acids at 4° C. or RT was lower when compared to the feed containing the normal amino acids. To be able to evaluate the formation of the NH3 over the entire period of the stability study, the AUC of the NH3 concentration was calculated for the timeframe of 3 months to compare the conditions.

CHOK1GS cell line [4] = assay: Serial passaging and batch experiment in Leu/Ile depleted Cellvento 4CHO with keto acids; format: cell-based; settings: for initial keto acid concentration detected in form of the amino acid: day 3
From the text: To confirm that this is applicable in CHO systems, keto Leu or keto Ile were used as replacement for Leu and Ile respectively in a cell culture medium (Cellvento® 4CHO). A Leu/Ile depleted version of the formulation was produced and equimolar concentrations of keto Leu vs Leu and keto Ile vs Ile were used (FIG. 15). Cell growth and viability of a CHOK1GS cell line were monitored over several weeks in serial passaging experiments to make sure that the growth is not due to residual amounts of Leu or Ile. A batch experiment with a seeding density of 0.2 million cells/mL was designed and IgG production was measured over time. The production of the amino acids was followed with time using amino acids quantification in the spent medium.

[5] = Feed stability: change in color, AUC of absorbance 300-600 nm over 90 days; format: physicochemical
Protocol: The stability of a feed containing Ile and Leu (Cellvento® 4Feed) was compared to the stability of the same feed depleted in Ile/Leu and with supplementation of either keto Leu or keto Ile. The feeds were prepared according to the standard protocol. The final pH was 7.0+/−0.2 and the feeds were stored at 4° C. or RT protected or exposed to light. The change in color of the formulations were monitored during 90 days by measuring the absorbance in the range from 300 nm to 600 nm (intervals of 5 nm). Conditions were compared by calculating the area under the curve (AUC) over time (between D0 and D90) of the baseline corrected area under the curve of the absorbance scan (300 nm-600 nm).

[6] = FB culture with other keto acids replacing their amino acid in the feed; format: cell-based
From the text: Other keto acids have been tested as replacement for their respective amino acids in FB experiments. A very similar behavior compared to Ile and Leu was observed when Val was replaced by keto Val in the feed (FIG. 17). Indeed, similar VCD and titer were observed compared to the positive control whereas the feed depleted in Val leads to a drastic decrease in the VCD, as well as a very low titer after day 7. […] Due to the structural similarity to keto Ile and keto Leu, the effect of keto Val on overall feed concentration and feed stability is similar to the other branched chain keto acids. 6× higher solubility when compared to Val was confirmed in water.
For phenylalanine (Phe) and its respective keto acid phenylpyruvate (FIG. 18), the amination reaction to build Phe in cell culture seemed to be slower than the amination reactions occurring for branched chain keto acids. […] Following that result, a condition where 2× the molar equivalent of Phe was used as a concentration of phenylpyruvate in the feed.

CHOK1GS cell line [7] = assay: Batch experiments with higher seeding densities and different Leu/keto Leu ratios; format: cell-based
Protocol: In a similar way, batch experiments with higher cell seeding densities were performed in media containing different ratios of Leu/keto Leu to understand which ratios are preferable when starting with higher cell densities (FIG. 16). The analytic used was the same as described above.
Finally, batch experiments with higher cell densities were performed to determine whether keto Leu is readily available when starting with high seeding densities or if a minimum concentration of free leucine has to be present to support growth and productivity in these conditions. For this experiment, a CHOK1GS cell line was seeded at 0.3, 0.6 or 1.10^6 cells/mL in a medium containing 0, 25, 50, 75, or 100% of keto Leu, the rest being added in form of Leucine.

[8] = system: CHODG44 cell line expressing an IgG1; assay: Fed-batch with keto Leu, CHODG44; format: cell-based
[9] = Feed stability: precipitation during storage; format: physicochemical
Protocol: In addition, when using keto Leu instead of Leu in the feed, the precipitation of the feed was delayed. To observe precipitation, the 50 mL falcon tubes were turned back to see possible sedimentation on the bottom of the tube and pictures were taken. […] A complete inhibition of precipitation was not observed at RT exposed to light but the precipitation was delayed in the keto Leu condition. Whereas precipitation was observed starting at D49 for the control condition, initial precipitation appeared at D70 for the keto Leu condition.

[10] = batch, seeding density 0.2 million cells/mL
[11] = equivalent molar concentration (1×)
[12] = Val replaced by keto Val in the feed

- Solubility 25° C. in g/kg (corresponding keto acid) [2]: 480 g/kg
- times more soluble than the amino acid (physchem): at least 6 times
- solubility at 10 min (physchem): ≥ 635 mM
- less ammonia produced compared to control ([3]; light exposed): 24%
- less ammonia produced compared to control ([3]; light protected): 21%
- reduced ammonia level compared to control ([3]; light exposed): 25%
- reduced ammonia level compared to control ([3]; light protected): 28%
- decrease of AUC (change in color) vs control ([5]; 4° C., light exposed): 68%
- decrease of AUC (change in color) vs control ([5]; 4° C., light protected): 33%
- decrease of AUC (change in color) vs control ([5]; RT, light exposed): 38%
- decrease of AUC (change in color) vs control ([5]; RT, light protected): no decrease
SMILES: CCC(C)C(=O)C(=O)[O-].[Na+] (stereo not drawn) [keto Ile, 3-Methyl-2-oxopentanoic acid sodium salt]
- amount of NH3 produced compared to control [1]: significantly reduced
- allo-Ile peak in spent medium ([1]; Ile replaced with keto Ile): increased with time
- concentration of Ile in the spent medium vs positive control ([1]; Ile replaced with keto Ile): significantly lower
- IgG vs control (CHOK1GS cell line [4]; [10]): slightly impaired
- growth / performance vs control (CHOK1GS cell line [4]; [10]): slightly impaired
- initial keto acid concentration detected in form of the amino acid (CHOK1GS cell line [4]; spent medium): 21%
- initial keto Ile concentration detected in the form of allo-Ile (CHOK1GS cell line [4]; spent medium, up to day 10): 35%

- Solubility (amino acid) [2]: 52.9 g/kg
SMILES: CSCC[C@H](N)C(=O)O [Methionine, reference compound]

- Solubility 25° C. in g/kg (corresponding keto acid) [2]: 72 g/kg
SMILES: O=C([O-])C(=O)Cc1ccccc1.[Na+] [phenylpyruvate, Phenylpyruvic acid sodium salt]
- Phe in the spent medium vs control ([6]; 2× the molar equivalent of Phe): very similar amount
- VCD vs control ([6]; 2× the molar equivalent of Phe): restore
- titer vs control ([6]; 2× the molar equivalent of Phe): restore
- Phe in the supernatant compared to negative control [6, 11]: more Phe
- final reduction of titer [6, 11]: 20%
- VCD vs control ([6]; equivalent molar concentration (1×), after day 5): significant lower VCD

- Solubility (amino acid) [2]: 26.8 g/kg
SMILES: N[C@@H](Cc1ccccc1)C(=O)O [Phenylalanine, reference compound]

- higher solubility when compared to Val ([2]; in water): 6 ×
- Solubility 25° C. in g/kg (corresponding keto acid) [2]: 362 g/kg
SMILES: CC(C)C(=O)C(=O)[O-].[Na+] [keto Val, α-Ketoisovaleric acid sodium salt]
- NH3 concentration [6, 12]: lower
- VCD compared to positive control [6, 12]: similar
- titer compared to positive control [6, 12]: similar

- Solubility (amino acid) [2]: 32.4 g/kg
- solubility at 10 min (physchem): ~105 mM (≈ 13.8 mg/mL)
SMILES: CC[C@H](C)[C@H](N)C(=O)O [Isoleucine, reference compound]

- maximum solubilities obtained in water [2]: 86.0 g/kg
SMILES: CC(C)C[C@H](N)C(=O)[O-].[Na+] [Leu sodium salt, reference compound]

- maximum solubilities obtained in water [2]: 22.1 g/kg
- Solubility (amino acid) [2]: 22.1 g/kg
- solubility at 10 min (physchem): ~90 mM (≈ 11.8 mg/mL)
SMILES: CC(C)C[C@H](N)C(=O)O [Leucine, reference compound]

- Solubility (amino acid) [2]: 58.5 g/kg
SMILES: CC(C)[C@H](N)C(=O)O [Valine, reference compound]

- maximum solubilities obtained in water [2]: 313.7 g/kg
- Solubility 25° C. in g/kg (corresponding keto acid) [2]: 313.7 g/kg
- times more soluble than the amino acid (physchem): 2.6 times
- solubility at 10 min (physchem): 240 mM
- less ammonia produced compared to control ([3]; light exposed): 19%
- less ammonia produced compared to control ([3]; light protected): 10%
- reduced ammonia level compared to control ([3]; light exposed): 5%
- reduced ammonia level compared to control ([3]; light protected): 15%
- amount and color intensity of precipitate vs control ([9]; RT light exposed, days after D70): lower
- precipitation ([9]; RT light protected): no precipitation
- decrease of AUC (change in color) vs control ([5]; 4° C., light exposed): 8%
- decrease of AUC (change in color) vs control ([5]; 4° C., light protected): 27%
- decrease of AUC (change in color) vs control ([5]; RT, light exposed): 37%
- decrease of AUC (change in color) vs control ([5]; RT, light protected): 31%
SMILES: CC(C)CC(=O)C(=O)[O-].[Na+] [keto Leu, 4-Methyl-2-oxopentanoic acid sodium salt]
- keto Leu share at which highest VCD was observed (CHOK1GS cell line [7]; seeding 0.6.10^6 and 0.3.10^6 cells/mL): 50%
- titer between ratios keto Leu/Leu (CHOK1GS cell line [7]; seeding at 0.3 and 1.10^6 cells/mL): no significant difference
- IgG concentration between ratios keto Leu/Leu (CHOK1GS cell line [7]; seeding at 0.6.10^6 cells/mL): slight trend
- keto Leu exchange at which maximum VCD was observed (CHOK1GS cell line [7]; seeding density 1.10^6 cells/mL): 100%
- amount of NH3 produced compared to control [1]: significantly reduced
- concentration of Leu in the spent medium vs positive control ([1]; Leu replaced with keto Leu): slightly lower
- IgG titer compared to control [8]: slightly lower
- Leu concentration in spent media vs control [8]: nearly similar
- VCD compared to control [8]: lower VCD
- overall specific productivity [8]: slightly increased
- growth / performance vs control (CHOK1GS cell line [4]; [10]): comparable
- initial keto acid concentration detected in form of the amino acid (CHOK1GS cell line [4]; spent medium): 34%

- Solubility 25° C. in g/kg (corresponding keto acid) [2]: >500 g/kg
SMILES: CSCCC(=O)C(=O)O [Alpha keto gamma methylthiobutyric acid sodium salt]
